Consider 4 molecules from ChEMBL document CHEMBL1201862, “PubChem BioAssay data set” (2004).

The structures appear in SMILES notation.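 Values below derive from 48-hour exposures of cells grown in 96-well plates, with endpoints linearly interpolated between the two concentrations bracketing the appropriate inhibition level. GI50 marks 50% less growth.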 Active and inactive are the calls of the source. Cut-off read from the data, not from the text of the source: active = GI50 up to about 1.1 µM and inactive = higher.

Holding throughout (assay): NCI-60 cell line screen, 48 h
Experiment [1] relates to A498.
Experiment [2] deals with A549.
Experiment [3] relates to ACHN.
Experiment [4] deals with COLO 205.
Experiment [5] has as its system DU-145.
Experiment [6] relates to HCC 2998.
Experiment [7] has as its system Hs-578T.
For experiment [8], the system named is MOLT-4.
Experiment [9] relates to NCI-H460.
The subject of experiment [10] is OVCAR-3.
Experiment [11] relates to OVCAR-4.
Experiment [12] has as its system OVCAR-8.
Experiment [13] has as its system PC-3.
For experiment [14], the system named is RPMI-8226.
Experiment [15] deals with RXF 393.
Experiment [16] relates to SF-268.
The test system of experiment [17] is SF-539.
Experiment [18] has as its system SK-MEL-28.
Experiment [19] deals with T47D.
The test system of experiment [20] is UO-31.

`CN(C)c1ccc(/C=c2\c3cc([N+](=O)[O-])ccc3n3c2cc(-c2ccccc2)[n+]3C)cc1`: the GI50 is 2.28 µM (inactive) in experiment [1]; 2.94 µM (inactive) in experiment [2]; 5.51 µM (inactive) in experiment [3]; 0.297 µM (active) in experiment [4]; 1.95 µM (inactive) in [5]; 2.28 µM (inactive) in [6]. Also, the GI50 in experiment [7] is 1.62 µM (inactive); in [8], 1.75 µM (inactive); in experiment [9], 3.13 µM (inactive); in experiment [10], 1.46 µM (inactive); in experiment [11], 2.17 µM (inactive); in experiment [12] it was 1.45 µM (inactive). Further, the GI50 in experiment [13] was 1.91 µM (inactive); in [14], 0.264 µM (active); in experiment [15] it was 1.06 µM (active); in [16] it was 0.923 µM (active); in [17] it was 0.822 µM (active); in experiment [18] it was 0.948 µM (active). For the same molecule, the GI50 in experiment [19] was 0.458 µM (active); in experiment [20], 7.41 µM (inactive).

On to `C[C@]12OC[C@H](c3ccccc3)N1C(=O)C1[C@H]2CC12SCCS2` (stereo not given in full), for which the GI50 in experiment [1], in [2], in [3], in experiment [4], in experiment [5] and in [6] was > 100 µM (inactive) each time. Further, the GI50 in experiment [7], in experiment [8], in [9], in [10], in experiment [11] and in experiment [12] was > 100 µM (inactive) throughout. The GI50 in experiment [13], in experiment [14], in experiment [15], in [16], in [17] and in experiment [18] was > 100 µM (inactive) each time. The GI50 in experiment [19] and in experiment [20] was > 100 µM (inactive) in each case.

As to `C/C(=N\NC(=S)NCCNC(=S)N/N=C(\C)c1ccccn1)c1ccccn1`, the GI50 in experiment [1] was 4.44 µM (inactive); in experiment [2], 3.21 µM (inactive); in experiment [3], 1.26 µM (inactive); in experiment [4], 2.09 µM (inactive); in [5], 2.32 µM (inactive); in experiment [6] it was 7.28 µM (inactive). Also, the GI50 in experiment [7] is > 73.1 µM (inactive); in experiment [8], 2.15 µM (inactive); in [9], 1.61 µM (inactive); in experiment [10], 2.74 µM (inactive); in experiment [11] it was 2.9 µM (inactive); in [12], 1.56 µM (inactive). Besides, the GI50 in [13] was 3.07 µM (inactive); in experiment [14] it was 1.7 µM (inactive); in experiment [15], 3.16 µM (inactive); in experiment [16] it was 1.9 µM (inactive); in experiment [17], 2.36 µM (inactive); in [18], 4.75 µM (inactive). In addition, the GI50 in experiment [19] is 4.43 µM (inactive); in experiment [20] it was 1.43 µM (inactive).

On to `CCc1ccc2nccc(NCCCN(C)C)c2c1[N+](=O)[O-]`, for which the GI50 is > 100 µM (inactive) in experiment [1]; > 100 µM (inactive) in experiment [2]; > 100 µM (inactive) in [3]; 30.7 µM (inactive) in [4]; > 100 µM (inactive) in experiment [5]; > 100 µM (inactive) in experiment [6]. The GI50 in [7] was 30.9 µM (inactive); in experiment [8], > 100 µM (inactive); in experiment [9], > 100 µM (inactive); in [10], 41.1 µM (inactive); in experiment [11] it was 90.2 µM (inactive); in experiment [12], > 100 µM (inactive). In addition, the GI50 in experiment [13] is 70 µM (inactive); in [14] it was > 100 µM (inactive); in experiment [15] it was 71.8 µM (inactive); in experiment [16], > 100 µM (inactive); in [17] it was > 10 µM (inactive); in [18], > 100 µM (inactive). Besides, the GI50 was > 100 µM (inactive) in experiment [19] and 86.3 µM (inactive) in experiment [20].
